The target of experiment [1] is T1, cloned human δ opioid receptor (Homo sapiens, UniProt P41143).
T1 construct: expressed in transfected cells
The experiment can be described thus: [3H]diprenorphine receptor binding, δ opioid receptor. Conditions: [3H]diprenorphine displacement; read-out: affinity (expressed as Ki value) to the δ opioid receptor. On the procedure: (§1) Ki values were obtained by Cheng-Prusoff corrections of IC50 values.
(§2) After dilution in buffer A and homogenization as before, membrane proteins (10-80 μg) in 250 μL were added to mixtures containing test compound and [^3H]diprenorphine (0.5 to 1.0 nM, 40,000 to 50,000 dpm) in 250 μL of buffer A in 96-well deep-well polystyrene titer plates (Beckman). After incubation at room temperature for one hour, the samples were filtered through GF/B filters that had been presoaked in a solution of 0.5% (w/v) polyethylenimine and 0.1% (w/v) bovine serum albumin in water. The filters were rinsed 4 times with 1 mL of cold 50 mM Tris HCl, pH 7.8 and radioactivity remaining on the filters determined by scintillation spectroscopy. Nonspecific binding was determined by the minimum values of the titration curves and was confirmed by separate assay wells containing 10 μM naloxone.
(§3) To determine the equilibrium dissociation constant for the inhibitors (Ki), radioligand bound (cpm) in the presence of various concentrations of test compounds was measured. The concentration to give half-maximal inhibition (EC50) of radioligand binding was determined from a best nonlinear regression fit to the following equation,
(§4) The nonlinear regression fit was performed using the program Prism® (GraphPad Software, San Diego, Calif.). The Ki values were then determined from the EC50 values by the following equation, […]

The target of experiment [2] is T2, cloned human κ opioid receptor (Homo sapiens, UniProt P41145).
T2 construct: expressed in transfected cells
The experiment in a line: [3H]diprenorphine receptor binding, κ opioid receptor. Conditions: [3H]diprenorphine displacement; read-out: affinity (expressed as Ki value) to the κ opioid receptor. How it is done:
as §1, §2, §3, §4

The structures appear in SMILES notation. pKi: −log10 of the molar value.

T2 sequence (P41145 whole entry): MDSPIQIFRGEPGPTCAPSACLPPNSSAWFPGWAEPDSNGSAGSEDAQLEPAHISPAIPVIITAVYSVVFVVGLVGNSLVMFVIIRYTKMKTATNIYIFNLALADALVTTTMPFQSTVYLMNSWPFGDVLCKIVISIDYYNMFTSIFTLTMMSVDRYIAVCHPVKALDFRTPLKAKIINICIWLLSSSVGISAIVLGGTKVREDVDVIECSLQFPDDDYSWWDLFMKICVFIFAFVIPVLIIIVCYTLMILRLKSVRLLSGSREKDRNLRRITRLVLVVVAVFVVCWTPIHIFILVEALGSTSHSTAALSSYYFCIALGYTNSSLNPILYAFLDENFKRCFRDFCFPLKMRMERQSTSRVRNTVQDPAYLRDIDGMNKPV
T1 sequence (P41143 whole entry): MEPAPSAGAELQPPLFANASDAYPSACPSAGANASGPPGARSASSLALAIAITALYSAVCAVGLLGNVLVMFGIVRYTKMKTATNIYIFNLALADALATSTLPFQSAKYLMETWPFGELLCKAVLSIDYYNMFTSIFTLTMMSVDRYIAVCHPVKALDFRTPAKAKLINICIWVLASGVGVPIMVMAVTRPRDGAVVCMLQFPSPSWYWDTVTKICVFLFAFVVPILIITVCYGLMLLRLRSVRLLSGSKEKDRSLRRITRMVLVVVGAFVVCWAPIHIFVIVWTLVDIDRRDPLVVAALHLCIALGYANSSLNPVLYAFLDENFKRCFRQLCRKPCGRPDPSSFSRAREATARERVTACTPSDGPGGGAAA

Take `C[C@H]1CN(C[C@H](Cc2ccccc2)C(=O)N[C@@H](CCCN)C(=O)O)CC[C@@]1(C)c1cccc(O)c1` [Example 28, 5-Amino-2(S)-{2(S)-benzyl-3-[4(R)-(3-hydroxy-phenyl)-3(R),4-dimethyl-piperidin-1-yl]-propionylamino}-pentanoic acid]: the pKi in experiment [1] was 6.29; in experiment [2], 6.70.

By pKi is commonly meant the Ki on a negative log10 scale, so that one unit is a factor of ten.

The values are drawn from patent US7820827B2, “Substituted piperidine compounds and methods of their use” (Adolor Corporation, priority 2003, dated 2010).
